Consider 1 compound from article PMC8092326 (mBio, 2021).

The test system of one data set is Vero-E6 cells. Conditions: at 1,000 μM.
The target in data set [1] is T1, RBD-mimic1 peptide-ACE2 interaction (Homo sapiens, UniProt Q9BYF1).
T1 construct: purchased Assay Matrix; R&D Systems (ACE2); Mimotopes, Australia (peptide)
In words: SPR competition (ABA injection) between compound and RBD-mimic1 peptide for immobilized ACE2. The class given is binding.

A further data set has as its target T2, human ACE2 (Homo sapiens, UniProt Q9BYF1).
T2 construct: purchased Assay Matrix; R&D Systems
Kind of data set: biochemical. In kind it is binding. Conditions: immobilized recombinant human ACE2; ± one SD; read-out: KD (nM) determined by SPR. In general terms: SPR reads the build-up and loss of mass on a sensor chip optically.

The target in a further data set is T3, SARS-CoV-2 spike protein (Severe acute respiratory syndrome coronavirus 2, UniProt P0DTC2).
T3 construct: made in house; host or cells: HEK 293 cells
Kind of data set: biochemical. In kind it is binding.

The test system of data set [2] is SARS-CoV-2 infection of Vero-E6 cells. Kind of data set: Dose-response inhibition of SARS-CoV-2 infection of Vero-E6 cells (24 h, in situ ELISA). In kind it is cell-based. The settings on record: Severe acute respiratory syndrome coronavirus 2, Vero C1008; 24 h infection, Vero-E6, MOI 0.12; read-out: IC50 (μM) Mean ± SD.
The test system of another data set is human albumin. The settings on record: cited from earlier work.
For data set [3], the target named is human ACE2-VLP spike protein interaction (UniProt P0DTC2+Q9BYF1). In kind it is binding, SARS-CoV-2.
Sequence of human ACE2-VLP spike protein interaction (Q9BYF1 18-740, one chain of several): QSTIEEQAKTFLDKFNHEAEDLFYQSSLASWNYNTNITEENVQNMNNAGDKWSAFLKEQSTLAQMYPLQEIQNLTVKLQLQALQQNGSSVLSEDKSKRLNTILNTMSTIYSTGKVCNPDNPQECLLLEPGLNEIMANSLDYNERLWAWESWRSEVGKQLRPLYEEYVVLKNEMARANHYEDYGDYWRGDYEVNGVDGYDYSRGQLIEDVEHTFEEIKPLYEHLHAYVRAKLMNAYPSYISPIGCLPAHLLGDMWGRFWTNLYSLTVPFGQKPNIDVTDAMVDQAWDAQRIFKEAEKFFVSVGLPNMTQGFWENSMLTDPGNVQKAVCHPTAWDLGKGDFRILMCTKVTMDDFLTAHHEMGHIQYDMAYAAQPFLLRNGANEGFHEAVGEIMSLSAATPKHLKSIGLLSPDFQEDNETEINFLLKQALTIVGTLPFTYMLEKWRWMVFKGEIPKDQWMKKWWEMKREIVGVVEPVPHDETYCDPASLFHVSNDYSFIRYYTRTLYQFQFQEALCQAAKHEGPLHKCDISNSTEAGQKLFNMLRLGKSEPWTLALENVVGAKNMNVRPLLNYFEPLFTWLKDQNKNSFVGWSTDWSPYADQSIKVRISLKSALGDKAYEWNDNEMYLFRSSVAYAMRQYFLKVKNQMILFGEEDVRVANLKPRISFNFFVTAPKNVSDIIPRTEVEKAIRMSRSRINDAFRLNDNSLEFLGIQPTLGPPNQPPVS
The test system of data set [4] is SARS-CoV-2 infection of Vero-E6 cells.
The nature of another data set: in vitro. The settings on record: African green monkey.

Values joined by “and” are separate entries in the source; they are usually repeats but may differ in a detail not shown here. Identical values can stand only once.

T2 sequence (Q9BYF1 18-805): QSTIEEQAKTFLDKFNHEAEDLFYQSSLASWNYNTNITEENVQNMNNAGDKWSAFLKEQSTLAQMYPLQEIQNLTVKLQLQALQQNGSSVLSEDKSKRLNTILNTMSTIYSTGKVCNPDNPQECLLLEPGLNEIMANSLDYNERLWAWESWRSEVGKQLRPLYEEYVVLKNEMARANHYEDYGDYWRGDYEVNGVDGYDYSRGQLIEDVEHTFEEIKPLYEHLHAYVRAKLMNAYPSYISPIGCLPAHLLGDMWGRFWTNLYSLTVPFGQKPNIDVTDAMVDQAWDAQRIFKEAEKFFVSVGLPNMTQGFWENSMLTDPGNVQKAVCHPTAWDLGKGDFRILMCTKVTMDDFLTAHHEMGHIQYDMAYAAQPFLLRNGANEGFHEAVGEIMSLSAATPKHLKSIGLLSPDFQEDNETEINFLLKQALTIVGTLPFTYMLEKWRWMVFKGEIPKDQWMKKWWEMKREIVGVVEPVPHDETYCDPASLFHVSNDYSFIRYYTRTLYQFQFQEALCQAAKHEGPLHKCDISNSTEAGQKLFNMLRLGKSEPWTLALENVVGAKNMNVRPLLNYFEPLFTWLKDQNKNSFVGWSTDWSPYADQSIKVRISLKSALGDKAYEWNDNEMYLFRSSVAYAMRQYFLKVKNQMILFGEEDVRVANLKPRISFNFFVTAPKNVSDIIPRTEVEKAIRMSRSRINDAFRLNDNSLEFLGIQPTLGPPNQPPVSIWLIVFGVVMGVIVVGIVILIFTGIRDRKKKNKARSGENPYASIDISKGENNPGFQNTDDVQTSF
T1 sequence (Q9BYF1 18-740 limits assumed): as the sequence (Q9BYF1 18-740, one chain of several) above

Take `Cc1cc(-c2ccc(/N=N/c3ccc4c(S(=O)(=O)O)cc(S(=O)(=O)O)c(N)c4c3O)c(C)c2)ccc1/N=N/c1ccc2c(S(=O)(=O)O)cc(S(=O)(=O)O)c(N)c2c1O` [Evans blue]: the “Cytotoxicity toward Vero-E6 cells” value in the data set on Vero-E6 cells is “no cytotoxicity”. Further, the “Inhibition of the RBD-mimic1 peptide-ACE2 interaction (in words)” value in [1] (1:1 ratio at 1 μM) is recorded as “complete inhibition”. Moreover, the inhibition at 1 µM in data set [1] (read-out: 1:1 competition between compound vs RBD-mimic1 peptide at 1 μM) turned out to be 99.8%. Also, the Kd on human ACE2 was 1.6 nM and 1.63 nM. Also, on SARS-CoV-2 spike protein, the “Initial SPR screening for binding to the VLP spike protein” value was “binding”. Also, the IC50 in data set [2] is 28.1 ± 1.2 µM. Besides, the “Affinity for human albumin” value in the data set with human albumin is listed as “low μM range”. Besides, in data set [3], the “1:1 Competition between compound vs CoV2 VLP” value is 98.9% ± 6.43 and the “Blocking (%)” value worked out at 78.2 ± 6.3%. Further, in data set [4], the “Cytotoxicity in screening at the highest concentration tested” value is reported as “no apparent cytotoxicity” and the “Screening result at the highest concentration tested” value is “active”. In addition, the CC50 in “in vitro” was more than 1000 µM.

For orientation: Kd means a measure of binding affinity in units of concentration. Usually IC50 stands for the concentration that gives 50% inhibition.
